Laboratory results taken from patent US20220128542A1, “TREATMENT EFFICIENCY EVALUATION” (TX MEDIC AB, priority 2019, published 2022).

Test system: brain of rats subjected to closed-head diffuse severe TBI (sTBI)
Assay: HPLC of energy metabolites, antioxidants and oxidative/nitrosative stress biomarkers in brain, dose study after sTBI (Example 3)
Assay type: in vivo, rat
Description: Male Wistar rats (n=160) of 300-350 g body weight were used in this study.
1994, 80: 291-300. This model causes diffuse axonal injury and it is able to reproduce the physical and mechanical characteristics of the diffuse TBI in humans.
Rats were placed prone on a bed of specific polyurethane foam inserted in a special container. This foam dissipates the major part of the potential energy (deriving from the mechanical forces) and prevents any rebound of the animal after the impact that could produce spinal damages.
These time points are coincident with the worst biochemical derangement (2 days) or, in the case of a mildly injured brain, with a full metabolic recovery (7 days).
The drug treatment consisted in a subcutaneous injection of 0.5 ml of LMW-DS (Tikomed) and administered at 3 different concentrations (1, 5 and 15 mg/kg body weight), according to the schematic protocol described below.
Sham-operated animals underwent the same procedure of anesthesia but TBI and were used as the control group.
Rats used in this study were divided into 4 groups in order to carry out a study on the efficacy of three different concentrations of LMW-DS at two different times post TBI. As subsequently specified, in each group there were animals subjected to a specific treatment for metabolic analyses and other animals intended to histo-morphological studies, according to the procedures described below.
Rats subjected to sTBI and receiving a single administration of LMW-DS after 30 minutes post-TBI, with sacrifice at 2 days post-TBI. Animals were divided in the following subgroups:
Rats subjected to sTBI and receiving a single administration of LMW-DS after 30 minutes post-TBI, with sacrifice at 7 days post-TBI. Animals were divided in the following subgroups:
Rats (n=12) subjected to sTBI and receiving repeated administrations of the maximal dose of LMW-DS (15 mg/kg b.w.) after 30 minutes, 3 days and 5 days post-TBI, with sacrifice at 7 days post-TBI. Four additional rats were used for the histo-morphological studies. Total rats in this group: n=16
To minimize metabolite loss, an in vivo craniectomy was performed in all animals during anesthesia. The rat skull was carefully removed, the brain was exposed, sharply cut along the sagittal fissure and the two hemispheres were separated. The hemispheres dedicated to biochemical analyses were freeze-clamped by aluminum tongues pre-cooled in liquid nitrogen and then immersed in liquid nitrogen. The freeze-clamping procedure was introduced to accelerate freezing of the tissue, thus minimizing potential metabolite loss.
Tissue homogenization for metabolite analyses was effected as described below. After the wet weight (w.w.) determination, the frozen hemispheres were placed into 7 ml of ice-cold, nitrogen-saturated, precipitating solution (1:10 w/v) composed by CH3CN+10 mM KH2PO4, pH 7.40, (3:1; v:v), and the homogenization was performed using an Ultra-Turrax homogenizer set at 24,000 rpm/min (Janke & Kunkel, Staufen, Germany). After centrifugation at 20,690×g, for 10 min at 4° C., the clear supernatants were saved, pellets were supplemented with an aliquot of 10 mM KH2PO4 and homogenized again as described above and saved overnight at −20° C. in order to obtain a complete recovery of aqueous phase from tissue. A second centrifugation was performed (20,690×g, for 10 min at 4° C.) and supernatants combined with those previously obtained were extracted by vigorous agitation with a double volume of HPLC-grade CHCl3 and centrifuged as above.

[1] = rats 2 days post-TBI, single 15 mg/kg b.w. 30 min after trauma
[2] = rats 7 days post-sTBI, repeated 15 mg/kg b.w.
[3] = rats 7 days post-sTBI, single 1 mg/kg b.w.
[4] = rats 7 days post-sTBI, single 5 mg/kg b.w.
[5] = rats 7 days post-sTBI, single 15 mg/kg b.w.

sodium salt of dextran sulfate [LMW-DS] was tested, and the “GUANOSINE concentration in brain homogenate” value (shortened to “GUANOSINE concentration”) [1] was 24.35 ± 4.05 nmol/g w.w, the “HYPDXANTHINE concentration in brain homogenate” value [1] was 6.82 ± 1.12 nmol/g w.w and the “INOSINE concentration in brain homogenate” value [1] was 142.91 ± 18.63 nmol/g w.w. The “URACIL concentration in brain homogenate” value [1] was 15.55 ± 3.04 nmol/g w.w, the “β-PSEUDOURIDINE concentration in brain homogenate” value [1] was 7.84 ± 1.57 nmol/g w.w and the “ADENOSINE concentration in brain homogenate” value [2] was 40.84 ± 30.25 nmol/g w.w. The “ADP-Ribose concentration in brain homogenate” value [2] was 13.23 ± 3.32 nmol/g w.w, the “AMP concentration in brain homogenate” value [2] was 43.12 ± 3.39 nmol/g w.w and the “Acetyl-CoA concentration in brain homogenate” value [2] was 37.91 ± 6.46 nmol/g w.w. The “CMP concentration in brain homogenate” value [2] was 31.21 ± 13.28 nmol/g w.w, the “CoA-SH concentration in brain homogenate” value [2] was 45.76 ± 5.87 nmol/g w.w and the “GDP concentration in brain homogenate” value [2] was 109.06 ± 12.46 nmol/g w.w. The “GUANINE concentration in brain homogenate” value (shortened to “GUANINE concentration”) [2] was 3.32 ± 1.41 nmol/g w.w, the “GUANOSINE concentration” value [2] was 19.66 ± 4.10 nmol/g w.w and the “INOSINE concentration in brain homogenate” value [2] was 139.26 ± 15.62 nmol/g w.w. For the same substance, the “Malonyl-CoA concentration in brain homogenate” value [2] was 12.56 ± 2.27 nmol/g w.w, the “NADPH concentration in brain homogenate” value [2] was 11.21 ± 2.60 nmol/g w.w and the “NO2 concentration in brain homogenate” value [2] was 130.69 ± 28.31 nmol/g w.w. The “UDP-GIcNac concentration in brain homogenate” value (from here on “UDP-GIcNac concentration”) [2] was 86.42 ± 29.89 nmol/g w.w, the “UDP-Gal concentration in brain homogenate” value (“UDP-Gal concentration” for short) [2] was 135.15 ± 9.29 nmol/g w.w and the “UDP-GalNac concentration in brain homogenate” value [2] was 16.50 ± 4.73 nmol/g w.w. The “URACIL concentration in brain homogenate” value [2] was 24.13 ± 4.96 nmol/g w.w, the “URIDINE concentration in brain homogenate” value [2] was 97.21 ± 23.03 nmol/g w.w and the “XANTHINE concentration in brain homogenate” value [2] was 11.24 ± 3.18 nmol/g w.w. The “ADP concentration in brain homogenate” value [3] was 286.78 ±38.19 nmol/g w.w, the “AMP concentration in brain homogenate” value [3] was 43.13 ± 3.39 nmol/g w.w and the “ASCORBIC ACID concentration in brain homogenate” value [3] was 2177.22 ± 262.21 nmol/g w.w. For the same substance, the “CDP choline concentration in brain homogenate” value (“CDP choline concentration” for short) [3] was 6.26 ± 2.01 nmol/g w.w, the “CMP concentration in brain homogenate” value [3] was 25.41 ± 10.81 nmol/g w.w and the “CYTIDINE concentration in brain homogenate” value (from here on “CYTIDINE concentration”) [3] was 29.67 ± 10.44 nmol/g w.w. The “CYTOSINE concentration in brain homogenate” value (shortened to “CYTOSINE concentration”) [3] was 16.03 ± 3.44 nmol/g w.w, the “GDP concentration in brain homogenate” value [3] was 121.72 ± 13.91 nmol/g w.w and the “GMP concentration in brain homogenate” value [3] was 113.06 ± 53.51 nmol/g w.w. For the same substance, the “GSH concentration in brain homogenate” value [3] was 1627.30 ± 214.51 nmol/g w.w, the “GUANINE concentration” value [3] was 6.86 ± 2.92 nmol/g w.w and the “GUANOSINE concentration” value [3] was 19.11 ± 3.98 nmol/g w.w. The “NADH concentration in brain homogenate” value [3] was 8.20 ± 1.41 nmol/g w.w, the “NAD^+ concentration in brain homogenate” value [3] was 268.14 ± 37.97 nmol/g w.w and the “NO3 concentration in brain homogenate” value [3] was 153.62 ± 26.24 nmol/g w.w. For the same substance, the “UDP-GIcNac concentration” value [3] was 85.36 ± 29.53 nmol/g w.w, the “UDP-Gal concentration” value [3] was 130.20 ± 8.95 nmol/g w.w and the “UDP-GalNac concentration in brain homogenate” value [3] was 15.85 ± 4.54 nmol/g w.w. For the same substance, the “XANTHINE concentration in brain homogenate” value [3] was 12.53 ± 3.54 nmol/g w.w, the “ADP concentration in brain homogenate” value [4] was 289.27 ± 38.52 nmol/g w.w and the “AMP concentration in brain homogenate” value [4] was 59.50 ± 4.68 nmol/g w.w. The “ASCORBIC ACID concentration in brain homogenate” value [4] was 2195.87 ± 264.45 nmol/g w.w, the “CDP choline concentration” value [4] was 10.37 ± 3.33 nmol/g w.w and the “CYTIDINE concentration” value [4] was 26.51 ± 9.33 nmol/g w.w. For the same substance, the “CYTOSINE concentration” value [4] was 12.67 ± 2.72 nmol/g w.w, the “GMP concentration in brain homogenate” value [4] was 101.42 ± 48.00 nmol/g w.w and the “GUANINE concentration” value [4] was 7.92 ± 3.37 nmol/g w.w. The “GUANOSINE concentration” value [4] was 33.42 ± 6.96 nmol/g w.w, the “NADH concentration in brain homogenate” value [4] was 8.83 ± 1.26 nmol/g w.w and the “NADPH concentration in brain homogenate” value [4] was 12.30 ± 2.86 nmol/g w.w. For the same substance, the “NADP^+ concentration in brain homogenate” value [4] was 24.45 ± 8.97 nmol/g w.w, the “UDP concentration in brain homogenate” value [4] was 44.19 ± 6.22 nmol/g w.w and the “UDP-GIcNac concentration” value [4] was 85.14 ± 29.45 nmol/g w.w. For the same substance, the “UDP-Gal concentration” value [4] was 132.66 ± 9.12 nmol/g w.w, the “UDP-Glc concentration in brain homogenate” value [4] was 58.10 ± 11.81 nmol/g w.w and the “XANTHINE concentration in brain homogenate” value [4] was 14.33 ± 4.05 nmol/g w.w. For the same substance, the “ADENOSINE concentration in brain homogenate” value [5] was 55.95 ± 41.44 nmol/g w.w, the “ADP concentration in brain homogenate” value [5] was 276.83 ± 36.87 nmol/g w.w and the “ADP-Ribose concentration in brain homogenate” value [5] was 19.21 ± 4.82 nmol/g w.w. For the same substance, the “Acetyl-CoA concentration in brain homogenate” value [5] was 38.60 ± 6.57 nmol/g w.w, the “CDP choline concentration” value [5] was 10.06 ± 3.23 nmol/g w.w and the “CYTIDINE concentration” value [5] was 33.06 ± 11.63 nmol/g w.w. The “CYTOSINE concentration” value [5] was 13.87 ± 2.98 nmol/g w.w, the “GDP concentration in brain homogenate” value [5] was 122.07 ± 13.95 nmol/g w.w and the “GUANINE concentration” value [5] was 5.27 ± 2.24 nmol/g w.w. For the same substance, the “GUANOSINE concentration” value [5] was 20.91 ± 4.36 nmol/g w.w, the “NADP^+ concentration in brain homogenate” value [5] was 23.75 ± 8.72 nmol/g w.w and the “NAD^+ concentration in brain homogenate” value [5] was 491.52 ± 69.61 nmol/g w.w. The “NO3 concentration in brain homogenate” value [5] was 161.99 ± 27.67 nmol/g w.w, the “UDP-Gal concentration” value [5] was 137.57 ± 9.46 nmol/g w.w and the “XANTHINE concentration in brain homogenate” value [5] was 12.71 ± 3.60 nmol/g w.w.
